# Data as given in PMC3914206.
# Key:
# Format in all cases: binding
# [1] = target: T1, panel of 442 kinases (Homo sapiens, UniProt Q52WX2); details: kinase SBK1; compound concentration 10 µM
# T1 construct: purchased KINOMEscan
# Excerpt: (§1) We assessed the selectivity of members of this scaffold using the KINOMEscan methodology across a near comprehensive panel of 442 kinases [[18,27]].
# [2] = target: T2, panel of 442 kinases (Homo sapiens, UniProt Q16832); details: Compound Concentration 10 µM
# T2 construct: purchased KINOMEscan
# T2 sequence (Q16832 22-855): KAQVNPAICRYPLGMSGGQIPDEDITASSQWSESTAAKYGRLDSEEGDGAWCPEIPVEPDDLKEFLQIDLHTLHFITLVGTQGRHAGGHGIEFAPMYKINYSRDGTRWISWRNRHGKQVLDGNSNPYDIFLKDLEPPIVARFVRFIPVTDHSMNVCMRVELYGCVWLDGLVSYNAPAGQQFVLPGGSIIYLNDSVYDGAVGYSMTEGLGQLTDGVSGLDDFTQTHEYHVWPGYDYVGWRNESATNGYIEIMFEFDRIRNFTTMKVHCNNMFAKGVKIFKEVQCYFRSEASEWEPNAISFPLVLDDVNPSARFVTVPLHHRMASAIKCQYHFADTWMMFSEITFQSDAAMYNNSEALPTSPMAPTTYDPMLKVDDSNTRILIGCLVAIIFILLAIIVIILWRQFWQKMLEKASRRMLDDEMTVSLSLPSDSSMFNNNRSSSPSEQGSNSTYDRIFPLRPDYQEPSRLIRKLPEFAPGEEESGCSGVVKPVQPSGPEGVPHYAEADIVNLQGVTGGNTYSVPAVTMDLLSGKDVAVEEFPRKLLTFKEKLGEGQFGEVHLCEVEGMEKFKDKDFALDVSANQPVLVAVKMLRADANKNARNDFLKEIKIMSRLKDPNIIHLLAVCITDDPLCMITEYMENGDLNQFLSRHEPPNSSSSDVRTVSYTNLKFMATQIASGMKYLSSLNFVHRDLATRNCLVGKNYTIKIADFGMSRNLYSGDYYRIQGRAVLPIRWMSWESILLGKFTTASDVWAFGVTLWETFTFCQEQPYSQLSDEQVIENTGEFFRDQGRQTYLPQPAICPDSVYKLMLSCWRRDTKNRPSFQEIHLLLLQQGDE
# Excerpt: as §1
# [3] = target: T3, panel of 442 kinases (Homo sapiens, UniProt P51812); details: Compound Concentration 10 µM
# T3 construct: purchased KINOMEscan
# Excerpt: as §1
# T3 sequence (P51812 whole entry): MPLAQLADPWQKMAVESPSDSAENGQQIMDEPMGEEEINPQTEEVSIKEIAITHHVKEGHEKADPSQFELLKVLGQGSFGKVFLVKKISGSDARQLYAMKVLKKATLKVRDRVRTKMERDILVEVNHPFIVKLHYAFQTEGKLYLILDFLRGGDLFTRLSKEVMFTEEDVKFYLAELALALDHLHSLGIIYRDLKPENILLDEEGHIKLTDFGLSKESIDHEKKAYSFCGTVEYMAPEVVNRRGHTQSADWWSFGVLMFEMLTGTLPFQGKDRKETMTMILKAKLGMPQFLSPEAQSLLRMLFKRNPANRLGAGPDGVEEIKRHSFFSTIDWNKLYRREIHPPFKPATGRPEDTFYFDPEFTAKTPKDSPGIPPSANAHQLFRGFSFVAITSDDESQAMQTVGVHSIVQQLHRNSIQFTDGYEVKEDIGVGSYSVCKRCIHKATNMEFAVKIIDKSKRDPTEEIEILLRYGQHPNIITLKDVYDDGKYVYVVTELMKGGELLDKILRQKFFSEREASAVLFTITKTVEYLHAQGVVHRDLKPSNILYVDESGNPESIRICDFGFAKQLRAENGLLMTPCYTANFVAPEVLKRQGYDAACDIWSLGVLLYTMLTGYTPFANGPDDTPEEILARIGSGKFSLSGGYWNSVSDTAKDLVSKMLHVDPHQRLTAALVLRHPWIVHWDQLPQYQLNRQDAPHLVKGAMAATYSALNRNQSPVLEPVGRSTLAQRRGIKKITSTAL
# T1 sequence (Q52WX2 whole entry): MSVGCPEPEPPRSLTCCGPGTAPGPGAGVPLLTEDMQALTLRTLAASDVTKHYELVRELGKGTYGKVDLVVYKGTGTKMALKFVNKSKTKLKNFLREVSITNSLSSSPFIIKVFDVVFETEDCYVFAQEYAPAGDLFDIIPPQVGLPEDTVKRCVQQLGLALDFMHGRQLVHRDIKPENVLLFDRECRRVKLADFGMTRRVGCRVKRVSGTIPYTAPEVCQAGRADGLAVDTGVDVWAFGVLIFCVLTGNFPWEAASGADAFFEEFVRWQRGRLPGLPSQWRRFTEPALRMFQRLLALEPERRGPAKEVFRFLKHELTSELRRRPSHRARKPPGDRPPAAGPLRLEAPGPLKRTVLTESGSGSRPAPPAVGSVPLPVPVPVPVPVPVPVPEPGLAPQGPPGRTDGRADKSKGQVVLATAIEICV
Structure (SMILES),"% Ctrl, SBK1 [1]",KINOMEscan: DDR2 [2],KINOMEscan: RSK2(Kin.Dom.1-N-terminal) [3]
COc1cc(C(=O)N2CCC(N3CCN(C)CC3)CC2)ccc1Nc1ncc2c(n1)N1CCc3cccc(c31)C(=O)N2C [Compound 24],80 % Ctrl,–,–
CCOc1cc(C(=O)N2CCC(N3CCN(C)CC3)CC2)ccc1Nc1ncc2c(n1)N(C1CCCC1)c1ccccc1C(=O)N2C [Compound 26],99 % Ctrl,81,100
"COc1cc(C(=O)N2CCC(N3CCN(C)CC3)CC2)ccc1Nc1ncc2c(n1)N(C1CCCC1)c1ccccc1C(=O)N2C [Compound 25, 11-cyclopentyl-2-((2-methoxy-4-(4-(4-methylpiperazin-1-yl)piperidine-1-carbonyl)phenyl)amino)-5-methyl-5H-benzo[e]pyrimido[5,4-b][1,4]diazepin-6(11H)-one]",72 % Ctrl,96,100
COc1cc(C(=O)N2CCC(N3CCN(C)CC3)CC2)ccc1Nc1ncc2c(n1)N(C)c1ccccc1C(=O)N2C [15 (LRRK2-IN-1)],100 % Ctrl,100,77
